The subject of this assay is P388 leukemia ip, CD2F1 mice, survival T/C. Briefly: NCI In Vivo Anticancer Drug Screen. Data for tumor model P388 Leukemia (intraperitoneal) in CD2F1 (CDF1) mice. Conditions: endpoint: median survival time, higher = longer survival. In short, it runs like this:
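Mice carrying the transplanted tumor received test compound or vehicle. Survival was recorded in each group, and the value is the treated-group measurement divided by that of the vehicle-treated control group.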

The mark [1] stands for this setting: dose: 50.0 mg/kg/injection, schedule: Q01DX009 (ip), vehicle: saline.
Where [2] appears, read: dose: 100.0 mg/kg/injection, schedule: Q01DX009 (ip), vehicle: saline.
The mark [3] stands for this setting: dose: 60.0 mg/kg/injection, schedule: Q01DX005 (ip), vehicle: Klucel (hydroxypropylcellulose) (HPC).
Where [4] appears, read: dose: 120.0 mg/kg/injection, schedule: Q01DX005 (ip), vehicle: Klucel (hydroxypropylcellulose) (HPC).
Where [5] appears, read: dose: 240.0 mg/kg/injection, schedule: Q01DX005 (ip), vehicle: Klucel (hydroxypropylcellulose) (HPC).
Setting [6] is: dose: 12.5 mg/kg/injection, schedule: Q01DX009 (ip), vehicle: saline with Tween-80.
Where [7] appears, read: dose: 25.0 mg/kg/injection, schedule: Q01DX009 (ip), vehicle: saline with Tween-80.
Where [8] appears, read: dose: 50.0 mg/kg/injection, schedule: Q01DX009 (ip), vehicle: saline with Tween-80.
Where [9] appears, read: dose: 100.0 mg/kg/injection, schedule: Q01DX009 (ip), vehicle: saline with Tween-80.
[10] abbreviates: dose: 200.0 mg/kg/injection, schedule: Q01DX009 (ip), vehicle: saline with Tween-80.
[11] abbreviates: dose: 100.0 mg/kg/injection, schedule: Q04DX003 (ip), vehicle: Klucel (hydroxypropylcellulose) (HPC).
The mark [12] stands for this setting: dose: 200.0 mg/kg/injection, schedule: Q04DX003 (ip), vehicle: Klucel (hydroxypropylcellulose) (HPC).

“And” between values parts separate entries of the source, which are not always exact repeats. Equal values may be shown once. Inconclusive results and toxic doses are left out.

For the compound `CC12NC(=O)NC1(C)NC(=O)N2` (configuration not stated), the T/C was 107 % of control under setting [1]; 87 % of control under setting [2]; 103 % of control (dose: 100.0 mg/kg/injection, schedule: Q04DX003 (ip), vehicle: saline); 97 % of control (dose: 200.0 mg/kg/injection, schedule: Q04DX003 (ip), vehicle: saline).

For `Nc1ccccc1Nc1c([N+](=O)[O-])cc(C(F)(F)F)cc1[N+](=O)[O-]`, the T/C runs as follows: under setting [3], 103 % of control; under setting [4], 105 % of control; under setting [5], 90 % of control.

For `C=C[Se](=C(C(C)=O)C(C)=O)c1ccccc1` (configuration not stated), the T/C is 97 % of control under setting [6]; 96 % of control under setting [7]; 98 % of control under setting [8]; 92 % of control under setting [1]; 99 % of control under setting [2]; 92 % of control (dose: 200.0 mg/kg/injection, schedule: Q01DX009 (ip), vehicle: saline).

As to `CN1CCN(CN2C(=O)NC(c3ccccc3)(c3ccccc3)C2=O)CC1`, the T/C is 90 % of control under setting [3], 107 % of control under setting [4] and 98 % of control under setting [5].

As for `C[CH2][Pb]([Br])([CH2]C)[CH2]C`, the T/C is 105 % of control and 97 % of control (dose: 3.12 mg/kg/injection, schedule: Q01DX009 (ip), vehicle: saline with Tween-80); 103 % of control and 107 % of control (dose: 6.25 mg/kg/injection, schedule: Q01DX009 (ip), vehicle: saline with Tween-80); 113 % of control and 114 % of control under setting [6]; 106 % of control under setting [7]; 107 % of control under setting [8].

Regarding `CN=C(NC#N)NCCSCc1nc[nH]c1C`, the T/C was 102 % of control (dose: 25.0 mg/kg/injection, schedule: Q01DX005 (ip), vehicle: Klucel (hydroxypropylcellulose) (HPC)); 93 % of control (dose: 50.0 mg/kg/injection, schedule: Q01DX005 (ip), vehicle: Klucel (hydroxypropylcellulose) (HPC)); 93 % of control (dose: 100.0 mg/kg/injection, schedule: Q01DX005 (ip), vehicle: Klucel (hydroxypropylcellulose) (HPC)); 102 % of control (dose: 200.0 mg/kg/injection, schedule: Q01DX005 (ip), vehicle: Klucel (hydroxypropylcellulose) (HPC)); 93 % of control (dose: 400.0 mg/kg/injection, schedule: Q01DX005 (ip), vehicle: Klucel (hydroxypropylcellulose) (HPC)).

For the compound `CC1[C@@H]2[C@@H](C=C3C4CCC5Cc6nc7c(nc6C[C@@]5(C)C4C[C@H](O)[C@]32CO)CC2CCC3C4=C[C@H]5O[C@@]6(O[C@@](C)(CO)C[C@@H]6O)C(C)[C@@]5(O)[C@]4(C)[C@@H](O)CC3[C@]2(C)C7)O[C@]12CCC(C)(C)O2` (some centres not stated), the T/C (dose: 12.5 micrograms/kg/injection, schedule: Q01DX009 (ip), vehicle: saline + alcohol) was 107 % of control; the T/C (dose: 25.0 micrograms/kg/injection, schedule: Q01DX009 (ip), vehicle: saline + alcohol) was 116 % of control; the T/C (dose: 50.0 micrograms/kg/injection, schedule: Q01DX009 (ip), vehicle: saline + alcohol) is 107 % of control; the T/C (dose: 100.0 micrograms/kg/injection, schedule: Q01DX009 (ip), vehicle: saline + alcohol) was 100 % of control.

With `C=C[C@H](c1ccccc1O)c1cc(O)c(OC)cc1OC`, the T/C (dose: 31.0 mg/kg/injection, schedule: Q01DX005 (ip), vehicle: Klucel (hydroxypropylcellulose) (HPC)) was 103 % of control; the T/C (dose: 62.0 mg/kg/injection, schedule: Q01DX005 (ip), vehicle: Klucel (hydroxypropylcellulose) (HPC)) is 103 % of control; the T/C (dose: 124.0 mg/kg/injection, schedule: Q01DX005 (ip), vehicle: Klucel (hydroxypropylcellulose) (HPC)) was 93 % of control; the T/C (dose: 248.0 mg/kg/injection, schedule: Q01DX005 (ip), vehicle: Klucel (hydroxypropylcellulose) (HPC)) was 94 % of control.

Regarding `O=C(NC(=NC(=Nc1ccc(Cl)cc1)c1ccccc1)c1ccccc1)c1ccccc1`, the T/C is, setting by setting: under setting [8], 92 % of control; under setting [9], 95 % of control; under setting [10], 99 % of control.

With `CCOC(=O)c1ccc(NN=NC(C)(C)C)cc1`, the T/C (dose: 12.5 mg/kg/injection, schedule: Q01DX009 (ip), vehicle: distilled water + Tween-80) is 91 % of control; the T/C (dose: 25.0 mg/kg/injection, schedule: Q01DX009 (ip), vehicle: distilled water + Tween-80) is 93 % of control; the T/C (dose: 50.0 mg/kg/injection, schedule: Q01DX009 (ip), vehicle: distilled water + Tween-80) was 86 % of control; the T/C (dose: 100.0 mg/kg/injection, schedule: Q01DX009 (ip), vehicle: distilled water + Tween-80) was 93 % of control; the T/C (dose: 200.0 mg/kg/injection, schedule: Q01DX009 (ip), vehicle: distilled water + Tween-80) is 86 % of control.

`O=C(CCN1CC1)Nc1cccc(NC(=O)CCN2CC2)c1`: the T/C is, setting by setting: (dose: 1.8 mg/kg/injection, schedule: Q01DX009 (ip), vehicle: Klucel (hydroxypropylcellulose) (HPC)) 176 % of control; (dose: 2.5 mg/kg/injection, schedule: Q01DX009 (ip), vehicle: Klucel (hydroxypropylcellulose) (HPC)) 158 % of control and 169 % of control and 185 % of control; (dose: 3.0 mg/kg/injection, schedule: Q01DX009 (ip), vehicle: Klucel (hydroxypropylcellulose) (HPC)) 174 % of control; (dose: 5.0 mg/kg/injection, schedule: Q01DX009 (ip), vehicle: Klucel (hydroxypropylcellulose) (HPC)) 167 % of control and 191 % of control and 209 % of control; (dose: 6.0 mg/kg/injection, schedule: Q01DX009 (ip), vehicle: Klucel (hydroxypropylcellulose) (HPC)) 186 % of control; (dose: 15.0 mg/kg/injection, schedule: Q01DX009 (ip), vehicle: Klucel (hydroxypropylcellulose) (HPC)) 88 % of control. Where the note is “dose: 20.0 mg/kg/injection, schedule: Q01DX009 (ip), vehicle: Klucel (hydroxypropylcellulose) (HPC)”, the T/C was 116 % of control.

Turning to `CC(C)CNc1ncnc2c1cnn2C`, the T/C (dose: 50.0 mg/kg/injection, schedule: Q01DX005 (ip), vehicle: saline) is 94 % of control; the T/C (dose: 100.0 mg/kg/injection, schedule: Q01DX005 (ip), vehicle: saline) was 112 % of control; the T/C (dose: 200.0 mg/kg/injection, schedule: Q01DX005 (ip), vehicle: saline) is 115 % of control.

Turning to `Oc1ccccc1/C=N/C(/N=C/c1ccccc1O)c1ccccc1O`, the T/C is 100 % of control under setting [8], 101 % of control under setting [9] and 100 % of control under setting [10].

With `OCCN(CCO)c1ccc2ccc(N(CCO)CCO)nc2n1`, the T/C by setting is: (dose: 50.0 mg/kg/injection, schedule: Q04DX003 (ip), vehicle: Klucel (hydroxypropylcellulose) (HPC)) 103 % of control; under setting [11], 103 % of control; under setting [12], 100 % of control.

As to `CC(=O)OCC(=O)[C@@]1(O)CC[C@H]2[C@@H]3CCC4=CC(=O)[C@H](C)C[C@]4(C)[C@@]3(F)[C@@H](O)C[C@@]21C`, the T/C reads like this: under setting [11], 100 % of control; under setting [12], 110 % of control.

For `CNC(=O)Oc1ccc(Sc2ccc(OC(=O)NC)c(Cl)c2)cc1Cl`, the T/C (dose: 50.0 mg/kg/injection, schedule: Q01DX005 (ip), vehicle: saline + Tween-80 + alcohol) was 106 % of control; the T/C (dose: 50.0 mg/kg/injection, schedule: Q01DX005 (ip), vehicle: saline with Tween-80) is 99 % of control and 118 % of control; the T/C (dose: 100.0 mg/kg/injection, schedule: Q01DX005 (ip), vehicle: saline + Tween-80 + alcohol) was 119 % of control; the T/C (dose: 100.0 mg/kg/injection, schedule: Q01DX005 (ip), vehicle: saline with Tween-80) is 102 % of control and 118 % of control; the T/C (dose: 200.0 mg/kg/injection, schedule: Q01DX005 (ip), vehicle: saline + Tween-80 + alcohol) is 114 % of control; the T/C (dose: 200.0 mg/kg/injection, schedule: Q01DX005 (ip), vehicle: saline with Tween-80) is 117 % of control. The T/C (dose: 400.0 mg/kg/injection, schedule: Q01DX005 (ip), vehicle: saline + Tween-80 + alcohol) was 124 % of control.

On to `COc1ccc2[nH]c3c(C)c4cc[n+](C)cc4c(C)c3c2c1`, for which the T/C (dose: 3.13 mg/kg/injection, schedule: Q01DX009 (ip), vehicle: saline) was 153 % of control and the T/C (dose: 6.25 mg/kg/injection, schedule: Q01DX009 (ip), vehicle: saline) is 100 % of control.

For the compound `CCn1c2ccccc2c2ccc(N=Cc3ccc([N+](=O)[O-])cc3)cc21`, the T/C reads like this: (dose: 50.0 mg/kg/injection, schedule: Q01DX009 (ip), vehicle: Klucel (hydroxypropylcellulose) (HPC)) 99 % of control; (dose: 100.0 mg/kg/injection, schedule: Q01DX009 (ip), vehicle: Klucel (hydroxypropylcellulose) (HPC)) 100 % of control; (dose: 200.0 mg/kg/injection, schedule: Q01DX009 (ip), vehicle: Klucel (hydroxypropylcellulose) (HPC)) 99 % of control.
